The format of data set [1] is physicochemical.
Data set [2] relates to S. aureus. The following applies: S. aureus MMX 101 (ATCC 29213); cited from earlier work.
For a further data set, the system named is M. abscessus complex. The data set can be described thus: MIC testing of CF isolates. Format: cell-based, Mycobacterium abscessus.
The subject of data set [3] is Pseudomonas aeruginosa strain PA01. The data set can be described thus: Bacterial killing curves with and without CF patient sputum. Format: cell-based. The following applies: tobramycin 1 μg/mL, 10% CF sputum, most time points.
For another data set, the system named is P. aeruginosa. The data set can be described thus: Checkerboard FIC/FICI assay. Format: cell-based, Pseudomonas aeruginosa. The following applies: Tobramycin in combination with BisEDT.
Data set [4] deals with Burkholderia cepacia complex. The data set can be described thus: Checkerboard FIC/FICI assay. Format: cell-based, Burkholderia spp.
The subject of another data set is Enterobacteriaceae. The following applies: E. coli MMX 102 (ATCC 25922); CLSI QC ranges shown in parenthesis; cited from earlier work.
The subject of data set [5] is P. aeruginosa and A. baumannii. The following applies: P. aeruginosa MMX 103 (ATCC 27853); CLSI QC ranges shown in parenthesis; cited from earlier work.
In data set [6] the test system is S. aureus. The data set can be described thus: Broth microdilution MIC (Example 11). Format: cell-based, Staphylococcus aureus. The following applies: Staphylococcus aureus, ATCC 29213 / MSSA, S. aureus MMX 101 (ATCC 29213); QC; MSSA; read-out: MIC. (In broth dilution the organism is exposed to a series of concentrations in liquid medium.)
The subject of the next data set is Enterococcus spp. The data set can be described thus: Broth microdilution MIC (Example 11). The following applies: Lev^R Cip^R Ery^R, read-out: MIC. Format: cell-based, E. faecalis, E. faecium.
In data set [7] the test system is Gram-positive aerobic bacteria (S. aureus, MRSA, CA-MRSA). The data set can be described thus: MIC90 against 150 clinical isolates of Gram-positive aerobic bacteria. Format: cell-based. The following applies: S. aureus (50 isolates).
Setting [8] is: non-reversing and total heat flow.
The mark [9] stands for this setting: P. aeruginosa 6322, one value per panel row C-G.
The mark [10] stands for this setting: P. aeruginosa 6977, by checkerboard.
Where [11] appears, read: P. aeruginosa 7745, by checkerboard.
The mark [12] stands for this setting: P. aeruginosa 9108, by checkerboard.
Setting [13] is: B. cepacia 1793, Tobramycin in combination with BisEDT, by checkerboard.

Values after ≈ are worked out from the molar mass of the structure shown. Values joined by “and” are separate entries in the source; they are usually repeats but may differ in a detail not shown here. Identical values can stand only once. Like-named read-outs stand apart in the source and are kept apart here. A value given as a limit tells only on which side of the number the result lay.

As for `C1C[S][Bi]([S]CC[S][Bi]2[S]CC[S]2)[S]1` [X-ray amorphous BisEDT], the “Temperature cycling DSC: broad, weak endotherm (approximate peak max)” value in data set [1] (Cycle 1, heat to 85° C.) was “Broad, weak endotherm at 75 °C”. Further, in data set [1] (Cycle 4, heat to 130° C., 10° C./min), the “Temperature cycling DSC: small endotherm (peak max)” value is “Small endotherm at 112 °C (peak max)”. The “Temperature cycling DSC: sharp exotherm (peak max)” value in data set [1] (Cycle 7, heat to 200° C., 10° C./min) was “Sharp exotherm at 160 °C (peak max)”. For the same compound, in data set [1] (conventional DSC), the “DSC: broad endotherm (peak max)” value was “Broad endotherm at 64 °C (peak max)”, the “DSC: sharp strong exotherm (peak max)” value was “Sharp strong exotherm at 168 °C”, the “DSC: small endotherm (peak max)” value is “Small endotherm at 112 °C (peak max)” and the “DSC: small exotherm (peak max)” value is “Small exotherm at 145 °C (peak max)”. Also, in data set [1] (setting [8]), the “Modulated DSC: broad weak endotherm (peak max)” value is “Broad weak endotherm at 47 °C”, the “Modulated DSC: heat flow fluctuations” value is “Heat flow fluctuations above 140 °C”, the “Modulated DSC: small endotherm (peak max)” value is “Small endotherm at 104 °C (peak max)” and the “Modulated DSC: small exotherm (peak max)” value was “Small exotherm at 134 °C (peak max)”. The “Modulated DSC: Tg (midpoint of step change)” value in [1] (reversing heat flow) is “Tg at 101 °C (midpoint of step change)”. Also, the “Modulated DSC: ΔCp” value in data set [1] (reversing heat flow, at Tg) is “(ΔCp 0.3 J/(g*K)”.

For the compound `Cc1onc(-c2ccccc2)c1C(=O)N[C@@H]1C(=O)N2[C@@H]1SC(C)(C)[C@@H]2C(=O)O` [Oxacillin], the “CLSI QC range of MIC” value with S. aureus [2] is “(0.12-0.25) μg/mL”.

On to `CC[C@H]1OC(=O)[C@H](C)[C@@H](O[C@H]2C[C@@](C)(OC)[C@@H](O)[C@H](C)O2)[C@H](C)[C@@H](O[C@@H]2O[C@H](C)C[C@H](N(C)C)[C@H]2O)[C@](C)(OC)C[C@@H](C)C(=O)[C@H](C)[C@@H](O)[C@]1(C)O` [CLR], for which the MIC against M. abscessus complex (M. abscessus/massiliense complex (AMT0068-40)) was 1 µg/mL (≈ 1.34 µM); in the data set on M. abscessus complex (M. abscessus/massiliense complex (AMT0119-7)), 1 µg/mL (≈ 1.34 µM); in the data set on M. abscessus complex (M. abscessus/massiliense complex (AMT0493-2), AMK R), 2 µg/mL (≈ 2.67 µM); against M. abscessus complex (M. abscessus/massiliense complex (AMT01130-8)), 1 µg/mL (≈ 1.34 µM); with M. abscessus complex (M. abscessus/massiliense complex (AMT1539)), 2 µg/mL (≈ 2.67 µM); against M. abscessus complex (M. abscessus/massiliense complex (ATCL119977), Macrolide R (inducible)) it was >32^1 ^ μg/mL.

For the compound `NC[C@H]1O[C@H](O[C@H]2[C@H](O)[C@@H](O[C@H]3O[C@H](CO)[C@@H](O)[C@H](N)[C@H]3O)[C@H](N)C[C@@H]2N)[C@H](N)C[C@@H]1O` [tobramycin, Tobramycin, reference compound], the “CFU higher in cultures with sputum vs without” value in data set [3] was 0.5-1 log CFU/mL. For the same compound, the FICB with P. aeruginosa (setting [9]) is 1; in the data set with P. aeruginosa (setting [10]), 2; in the data set with P. aeruginosa (setting [11]), 1; in the data set on P. aeruginosa (setting [12]), 1; in [4] (B. cenocepacia 548, FIC of Tobramycin (Drug B) in combination with BisEDT), 0.25 and 0.5; in data set [4] (B. cenocepacia 813, FIC of Tobramycin (Drug B) in combination with BisEDT), 0.5 and 1. For the same compound, the FICB is 0.5 and 1 in data set [4] (setting [13]); 1 in [4] (B. multivorans 1795, FIC of Tobramycin (Drug B) in combination with BisEDT). Further, the MICB in the data set with P. aeruginosa (setting [9]) was 128 µg/mL; in the data set on P. aeruginosa (setting [10]) it was 256 µg/mL; in the data set with P. aeruginosa (setting [11]), 0.5 µg/mL; with P. aeruginosa (setting [12]), 0.0005 µg/mL; in data set [4] (B. cenocepacia 548, MIC of Tobramycin (Drug B) in combination with BisEDT), 8 µg/mL and 16 µg/mL; in data set [4] (setting [13]), 8 µg/mL and 16 µg/mL. The MICB in [4] (B. multivorans 1795, MIC of Tobramycin (Drug B) in combination with BisEDT) is >256 µg/mL.

On to `CC(C)(O/N=C(\C(=O)N[C@@H]1C(=O)N2C(C(=O)[O-])=C(C[n+]3ccccc3)CS[C@H]12)c1csc(N)n1)C(=O)O` [Ceftazidime], for which the figures for the “MIC, CLSI QC range” value (with Enterobacteriaceae; in data set [5]) were “(0.06-0.5) μg/mL” and “(1-4) μg/mL”, respectively. Also, the MIC was 8 µg/mL (≈ 14.6 µM) with S. aureus [6]; > 32 µg/mL with Enterococcus spp. (E. faecalis MMX 8960, VRE); > 32 µg/mL in the data set with Enterococcus spp. (E. faecalis MMX 8961, VRE); > 32 µg/mL with Enterococcus spp. (E. faecalis MMX 8962, VRE); > 32 µg/mL in the data set with Enterococcus spp. (E. faecium MMX 485, VRE vanA); > 32 µg/mL in the data set with Enterococcus spp. (E. faecium MMX 752, VRE vanA). Besides, in the data set on S. aureus [2], the “CLSI QC range of MIC” value was “(4-16) μg/mL”.

Turning to `C[C@@H](O)[C@H]1C(=O)N2C(C(=O)O)=C(SCCN=CN)C[C@H]12` [IPM], the MIC90 is 2 µg/mL (≈ 6.68 µM) in [7] (CA-MRSA), >8 µg/mL in data set [7] (MRSA) and 0.03 µg/mL (≈ 0.1 µM) in [7] (MSSA).

Usually MIC stands for the lowest concentration that inhibits growth of the organism. A word on the MIC90: it is an inhibitory concentration at the 90% level, which refers to growth in some studies and to a panel of isolates in others. Low readings indicate higher susceptibility, high ones lower susceptibility.

The record behind these values is patent US20230124862A1, “BISMUTH THIOL COMPOUNDS AND COMPOSITIONS AND METHODS OF TREATING MICROBIAL CO-INFECTIONS” (Microbion Corporation, priority 2020, published 2023).
